Source: patent US20240228501A1, “IMIDAZOLE-CONTAINING CONDENSED RING DERIVATIVE, PREPARATION METHOD THEREFOR, AND APPLICATION THEREOF IN MEDICINE” (CHANGCHUN GENESCIENCE PHARMACEUTICAL CO., LTD., priority 2021, published 2024)

target: T1, human NK-3 receptor (Homo sapiens, UniProt P29371); test: Antagonistic activity on human NK-3 receptor in human NK-3R/HEK293 stably transfected cells (Fluo-4, FLIPR, Neurokinin B as agonist); format: cell-based; details: human NK-3R/HEK293 cells
T1 construct: expressed in transfected cells; host or cells: HEK293
T1 sequence (P29371 1-465): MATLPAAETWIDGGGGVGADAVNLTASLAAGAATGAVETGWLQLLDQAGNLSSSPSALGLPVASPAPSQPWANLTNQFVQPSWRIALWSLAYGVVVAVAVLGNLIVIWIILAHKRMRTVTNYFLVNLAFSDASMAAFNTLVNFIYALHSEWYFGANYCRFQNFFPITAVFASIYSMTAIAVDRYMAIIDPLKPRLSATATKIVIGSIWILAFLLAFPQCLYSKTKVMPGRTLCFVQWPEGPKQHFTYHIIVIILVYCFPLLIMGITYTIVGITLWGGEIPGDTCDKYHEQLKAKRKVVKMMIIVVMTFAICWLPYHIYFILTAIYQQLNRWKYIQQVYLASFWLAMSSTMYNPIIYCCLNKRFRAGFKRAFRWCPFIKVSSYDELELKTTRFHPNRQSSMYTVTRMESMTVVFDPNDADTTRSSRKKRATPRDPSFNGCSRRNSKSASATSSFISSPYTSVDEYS
Procedure: Test Example 1: Determination of Activity of Compounds of the Present Invention on Human NK-3 Receptor
This method is used to determine antagonistic effects of the compounds of the present invention on the activity of human NK-3 receptor proteins expressed in cell lines stably transfected with human NK-3R/HEK293.
2.1 The cell lines stably transfected with human NK-3R/HEK293 were inoculated in a 384-well cell culture plate at a inoculation density of 12,000 cells/well/25 μL, and cultured at 37° C. and 5% CO2 overnight;
2.2 20× Component A was frozen and thawed to room temperature, diluted 2× with Assay Buffer to working concentration, and kept at room temperature for later use;
2.3 The cell culture plate was equilibrated at room temperature for 10 min, the culture medium was removed, and 20 μL of Assay Buffer and 20 μL of 2× Component A […] were added, followed by centrifugation at 200 g at room temperature for 3-5 sec, and incubation at 37° C. for 2 h;
2.4 The compound was diluted 3 times with DMSO in 384 PP_DMSO plate, and then 240 nl/well of the compound was transferred into a working plate with Echo 550, centrifugated at 200 g at room temperature for 1 min; 40 μl of Assay Buffer was added into the working plate, centrifugated at 200 g at room temperature for 1 min, and then fully mixed in an oscillator at 2500 rpm for 20 min, and then centrifugated at 200 g at room temperature for 1 min for later use;
2.5 2.5 nM Neurokinin B TFA (6×) was prepared from Assay Buffer, 50 uL of which was transferred onto 3657 plate for later use;
2.6 The cell culture plate was taken out and left to stand at room temperature for 10 min, then […] the compound diluted in step 2.4 was added into corresponding wells, and the cell culture plate was left to stand at 25° C. for 30 min; and
2.7 10 μL of the compound diluted in step 2.5 was added into the corresponding experimental wells with FLIPR Tetra, and data was collected.
The antagonistic activity of the compounds of the present invention on the human NK-3 receptor was determined through the above experiments, to obtain inhibition curves of the compounds of the present invention and determine concentrations (IC50) of the corresponding compounds that inhibit 50% of the reference agonist.

IC50 | SMILES
51.9 nM | Cc1nsc(-c2nc(N3Cc4ccccc4CC3=O)c3n2CCN(C(=O)c2ccc(F)cc2)[C@@H]3C)n1 [Compound 100, (R)-2-(7-(4-fluorobenzoyl)-8-methyl-3-(3-methyl-1,2,4-thiadiazol-5-yl)-5,6,7,8-tetrahydroimidazo[1,5-a]pyrazin-1-yl)-1,4-dihydroisoquinolin-3 (2H)-one]
31 nM | Cc1nsc(-c2nc(N3C[C@@H](O)CC3=O)c3n2CCN(C(=O)c2ccc(F)cc2)[C@@H]3C)n1 [Compound 104, (S)-1-((R)-7-(4-fluorobenzoyl)-8-methyl-3-(3-methyl-1,2,4-thiadiazol-5-yl)-5,6,7,8-tetrahydroimidazo[1,5-a]pyrazin-1-yl)-4-hydroxypyrrolidin-2-one]
35 nM | Cc1nsc(-c2nc(-c3ccncc3)c3n2CCN(C(=O)c2ccc(F)cc2)[C@@H]3C)n1 [Compound 026, (R)-(4-fluorophenyl)(8-methyl-3-(3-methyl-1,2,4-thiadiazol-5-yl)-1-(pyridin-4-yl)-5,6-dihydroimidazo[1,5-a]pyrazin-7 (8H)-yl)methanone]
29.6 nM | Cc1cc(-c2nc(-c3nc(C)ns3)n3c2[C@@H](C)N(C(=O)c2ccc(F)cc2)CC3)ccn1 [Compound 043, (R)-(4-fluorophenyl)(8-methyl-3-(3-methyl-1,2,4-thiadiazol-5-yl)-1-(2-methylpyridin-4-yl)-5,6-dihydroimidazo[1,5-a]pyrazin-7 (8H)-yl)methanone]
20.2 nM | Cc1nsc(-c2nc(N3CCOC3=O)c3n2CCN(C(=O)c2ccc(F)cc2)[C@@H]3C)n1 [Compound 101, (R)-3-(7-(4-fluorobenzoyl)-8-methyl-3-(3-methyl-1,2,4-thiadiazol-5-yl)-5,6,7,8-tetrahydroimidazo[1,5-a]pyrazin-1-yl)oxazolidin-2-one]
84.5 nM | COc1cc(-c2nc(-c3nc(C)ns3)n3c2[C@@H](C)N(C(=O)c2ccc(F)cc2)CC3)ccn1 [Compound 080, (R)-(1-(2-methoxypyridin-4-yl)-8-methyl-3-(3-methyl-1,2,4-thiadiazol-5-yl)-5,6-dihydroimidazo[1,5-a]pyrazin-7 (8H)-yl)(4-fluorophenyl)methanone]
64.6 nM | Cc1nsc(-c2nc(-c3ccncc3)c3n2CCN(C(=O)c2ccc(F)cc2)C3C)n1 (stereo not shown) [Compound 005, (4-fluorophenyl)(8-methyl-3-(3-methyl-1,2,4-thiadiazol-5-yl)-1-(pyridin-4-yl)-5,6-dihydroimidazo[1,5-a]pyrazin-7 (8H)-yl)methanone]
216 nM | Cc1nsc(-c2nc(C(F)F)c3n2CCN(C(=O)c2ccc(F)cc2)[C@@H]3C)n1 [Compound 197, (R)-(1-(difluoromethyl)-8-methyl-3-(3-methyl-1,2,4-thiadiazol-5-yl)-5,6-dihydroimidazo[1,5-a]pyrazin-7 (8H)-yl)(4-fluorophenyl)methanone]
80.1 nM | Cc1nsc(-c2nc(N(C)S(C)(=O)=O)c3n2CCN(C(=O)c2ccc(F)cc2)[C@@H]3C)n1 [Compound 064, (R)—N-(7-(4-fluorobenzoyl)-8-methyl-3-(3-methyl-1,2,4-thiadiazol-5-yl)-5,6,7,8-tetrahydroimidazo[1,5-a]pyrazin-1-yl)-N-methylmethanesulfonamide]
56.3 nM | Cc1nsc(-c2nc(-c3ccnnc3)c3n2CCN(C(=O)c2ccc(F)cc2)[C@@H]3C)n1 [Compound 028, (R)-(4-fluorophenyl)(8-methyl-3-(3-methyl-1,2,4-thiadiazol-5-yl)-1-(pyridazin-4-yl)-5,6-dihydroimidazo[1,5-a]pyrazin-7 (8H)-yl)methanone]
225 nM | Cc1nsc(-c2nc(-c3ccco3)c3n2CCN(C(=O)c2ccc(F)cc2)[C@@H]3C)n1 [Compound 218, (R)-(4-fluorophenyl)(1-(furan-2-yl)-8-methyl-3-(3-methyl-1,2,4-thiadiazol-5-yl)-5,6-dihydroimidazo[1,5-a]pyrazin-7 (8H)-yl)methanone]

The next lines start with the compound.

SMILES | IC50
Cc1nsc(-c2nc(N3CCCC3=O)c3n2CCN(C(=O)c2cc(F)c(F)c(F)c2)[C@@H]3C)n1 [Compound 220, (R)-1-(8-methyl-3-(3-methyl-1,2,4-thiadiazol-5-yl)-7-(3,4,5-trifluorobenzoyl)-5,6,7,8-tetrahydroimidazo[1,5-a]pyrazin-1-yl)pyrrolidin-2-one] | 28 nM
Cc1nsc(-c2nc(N3CCCCC3=O)c3n2CCN(C(=O)c2ccc(F)cc2)[C@@H]3C)n1 [Compound 069, (R)-1-(7-(4-fluorobenzoyl)-8-methyl-3-(3-methyl-1,2,4-thiadiazol-5-yl)-5,6,7,8-tetrahydroimidazo[1,5-a]pyrazin-1-yl)piperidin-2-one] | 7.43 nM
Cc1nsc(-c2nc(N3CCCC3=O)c3n2CCN(C(=O)c2ccc(F)cc2C)[C@@H]3C)n1 [Compound 128, (R)-1-(7-(4-fluoro-2-methylbenzoyl)-8-methyl-3-(3-methyl-1,2,4-thiadiazol-5-yl)-5,6,7,8-tetrahydroimidazo[1,5-a]pyrazin-1-yl)pyrrolidin-2-one] | 84.6 nM
C[C@@H]1c2c(N3C[C@H](O)CC3=O)nc(-c3nc(C(F)(F)F)cs3)n2CCN1C(=O)c1ccc(F)cc1 [Compound 120, (R)-1-((R)-7-(4-fluorobenzoyl)-8-methyl-3-(4-(trifluoromethyl)thiazol-2-yl)-5,6,7,8-tetrahydroimidazo[1,5-a]pyrazin-1-yl)-4-hydroxypyrrolidin-2-one] | 18.8 nM
C[C@@H]1c2c(N3CCCC3=O)nc(-c3nc(CF)ns3)n2CCN1C(=O)c1ccc(F)cc1 [Compound 184, (R)-1-(7-(4-fluorobenzoyl)-3-(3-(fluoromethyl)-1,2,4-thiadiazol-5-yl)-8-methyl-5,6,7,8-tetrahydroimidazo[1,5-a]pyrazin-1-yl)pyrrolidin-2-one] | 46.5 nM
Cc1nsc(-c2nc(N3CCN(C)CC3=O)c3n2CCN(C(=O)c2ccc(F)cc2)[C@@H]3C)n1 [Compound 084] | 23.7 nM
Cc1nsc(-c2nc(N3CCOCC3)c3n2CCN(C(=O)c2ccc(F)cc2)[C@@H]3C)n1 [Compound 033, (R)-(4-fluorophenyl)(8-methyl-3-(3-methyl-1,2,4-thiadiazol-5-yl)-1-morpholino-5,6-dihydroimidazo[1,5-a]pyrazin-7 (8H)-yl)methanone] | 50.6 nM
CC(=O)N[C@@H]1CC(=O)N(c2nc(-c3nc(C)ns3)n3c2[C@@H](C)N(C(=O)c2ccc(F)cc2)CC3)C1 [Compound 132, N—{(R)-1-[(R)-7-(4-fluorobenzoyl)-8-methyl-3-(3-methyl-1,2,4-thiadiazol-5-yl)-5,6,7,8-tetrahydroimidazo[1,5-a]pyrazin-1-yl]-5-oxopyrrolidin-3-yl}acetamide] | 16.1 nM
